Earlier results, collected in patent US20080020059A1, “COMPOSITIONS AND METHODS FOR TOPICAL TREATMENT OF SKIN INFECTION” (CHIOU CONSULTING, INC., priority 2003, published 2008).

Test system: acne
Conditions: after 12 weeks of treatment

CC[C@H]1OC(=O)[C@H](C)[C@@H](O[C@H]2C[C@@](C)(OC)[C@@H](O)[C@H](C)O2)[C@H](C)[C@@H](O[C@@H]2O[C@H](C)C[C@H](N(C)C)[C@H]2O)[C@](C)(O)C[C@@H](C)C(=O)[C@H](C)[C@@H](O)[C@]1(C)O [erythromycin]
patients showing satisfactory responses: about 50%
